Laboratory results from PubChem BioAssay (NCI).
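48-hour exposure; five concentrations; linearly interpolated endpoints. TGI: concentration producing complete growth inhibition.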

How the values were obtained:
Assay in all cases: NCI-60 cell line screen, 48 h
A498 renal = system: A498 renal
PC-3 prostate = system: PC-3 prostate
HL-60(TB) leukemia = system: HL-60(TB) leukemia
NCI-H226 lung = system: NCI-H226 lung
OVCAR-3 ovarian = system: OVCAR-3 ovarian
HT29 colon = system: HT29 colon
IGROV1 ovarian = system: IGROV1 ovarian
SW-620 colon = system: SW-620 colon
SK-MEL-28 melanoma = system: SK-MEL-28 melanoma
MDA-MB-435 = system: MDA-MB-435

Row | Compound | TGI (A498 renal) [µM] | TGI (PC-3 prostate) [µM] | TGI (HL-60(TB) leukemia) [µM] | TGI (NCI-H226 lung) [µM] | TGI (OVCAR-3 ovarian) [µM] | TGI (HT29 colon) [µM] | TGI (IGROV1 ovarian) [µM] | TGI (SW-620 colon) [µM] | TGI (SK-MEL-28 melanoma) [µM] | TGI (MDA-MB-435) [µM]
1 | COc1ccc(-c2c3c([nH]c(=S)c2C#N)CC(C)(C)CC3=O)cc1 | > 100 | > 100 | > 100 | > 100 | > 100 | > 100 | > 100 | > 100 | > 100 | 
2 | COc1c(O)c2c3c(c(C)cc(O)c3c1O)C(=O)C(O)(C(C)(C)C(C)=O)C2=O (stereo unspecified) |  |  | > 100 | 34.6 | > 100 | > 100 | > 100 | > 100 | > 100 | 
3 | CC1=C2C(=C[C@H]3[C@]4(C)CCCC(C)(C)[C@H]4CC[C@]34O[C@H]24)OC1=O | > 100 | > 100 |  | > 100 |  | > 100 | > 100 | > 100 | > 100 | > 100
4 | O=C(CN(c1ccccc1)c1ccccc1)N1c2ccccc2C2C=CC=CC21 (stereo unspecified) | 77.4 |  | 25.7 | 44.6 | 44.6 | > 56.5 | 47.3 | > 53.5 | > 56 | 
5 | CCc1c[n+]([O-])c(C)cc1[N+](=O)[O-] | > 100 | > 100 | > 100 |  | > 100 | > 100 | > 100 | > 100 | > 100 | > 100
6 | CCN1CCCC(NCc2c3ccccc3c(CNC3CCCN(CC)C3)c3ccccc23)C1 (stereo unspecified) | 28.2 |  | 22.7 | 30 | 26.1 | > 37.5 | 55.7 | 29.4 | 25.9 | 
7 | CC[n+]1[b-](C(C)(C)C)n(/N=C/C(C)(C)C)[b-](C(C)(C)C)[n+]1CC |  | > 100 |  | > 100 | > 100 | > 100 | > 100 | > 100 | > 100 | > 100
8 | CCN(CC)CCCNC(=O)c1ccc([N+](=O)[O-])cc1O | > 100 |  | > 100 | > 100 | > 100 | > 100 | > 100 | > 100 | > 100 | 
9 | CCOC(=O)c1c(-c2ccccc2)c(-c2ccccc2)cn1C |  |  | > 10 | > 10 | > 10 | > 10 | > 10 |  |  | > 10
10 | S=C(/N=c1\sc(Nc2ccc(Cl)cc2)nc2sc3c(c12)CCN(N1CCc2c(sc4nc(Nc5ccc(Cl)cc5)s/c(=N\C(=S)Nc5ccc(Cl)cc5)c24)C1)C3)Nc1ccc(Cl)cc1 |  | 87.9 |  | > 100 | > 100 | 36.1 | > 100 | > 100 | > 100 | 
11 | C(=Nc1ccc(-c2nc3ccccc3o2)cc1)c1ccco1 | 95 | > 100 |  |  |  | > 100 | > 100 | > 100 | > 100 | > 100
12 | N/C(=N\S(=O)(=O)c1c(C(F)(F)F)cccc1C(F)(F)F)Nc1ccc(Cl)cc1 | 50.6 | 25.6 | 51.9 | > 100 | > 100 | > 100 | 60.2 | > 100 | > 100 | 
13 | CC(C(=O)N1C(=O)N(C(=O)C(C)C(O)c2ccccc2)C2CCCCC21)C(O)c1ccccc1 (stereo unspecified) |  |  | 70 |  | > 100 |  | > 100 | > 100 | > 100 | 
14 | Cc1ccc([N+](=O)[O-])cc1N=NC(=O)NNc1cc([N+](=O)[O-])ccc1C | 84.4 | > 100 | > 100 |  | 39.9 | 45 |  |  | 87.5 | 53
15 | CCC1=CC2CN3Cn4c(c(COCc5c6n(c7ccccc57)CN5CC7C=C(CC)C5C6(C(=O)OC)C7)c5ccccc54)C(C(=O)OC)(C2)C13 | > 100 |  | > 100 | > 100 | > 100 | > 100 | > 100 | > 100 | > 100 | 
16 | C=C1c2cc3c(cc2CC12Cc1cc4c(cc1C2=O)CCC4)CCC3 (stereo unspecified) | > 100 | > 100 | > 100 |  | > 100 | > 100 | > 100 | > 100 | > 100 | > 100
17 | NCCCN1CCN(CCCNc2ccc3nnn4c5ccccc5c(=O)c2c34)CC1 | 40.6 | 35.5 | > 100 |  | > 100 | 50.3 | 33.9 | > 100 | > 100 | 60.1
18 | C[C@@H]1S[C@H](c2ccccc2F)N2Cc3ccccc3N=C12 |  | 97.1 | 52.3 | > 100 | > 100 | 86.6 | > 100 | > 100 | > 100 | 88.5
